Literature values, collected in patent publication US20260335281A1, “PHARMACEUTICAL COMPOSITION COMPRISING CENTANAFADINE” (OTSUKA PHARMACEUTICAL CO., LTD., priority 2022, published 2026).

How the values were obtained:
[1] = test system: serotonin (5-HT) reuptake
[2] = test system: norepinephrine (NE) reuptake
[3] = fold less than against norepinephrine reuptake, background statement

SMILES: c1ccc2cc([C@]34CNC[C@H]3C4)ccc2c1 [(1R,5S)-1-(naphthalen-2-yl)-3-azabicyclo[3.1.0]hexane]
- effectiveness against serotonin (5-HT) reuptake, fold less [1, 3]: 14 fold
- inhibition of serotonin reuptake ([1]; in words, PL 1 (JP 5184354 B)): can inhibit the reuptake
- effectiveness against dopamine (DA) reuptake, fold less (dopamine (DA) reuptake; [3]): 6 fold
- inhibition of dopamine reuptake (dopamine (DA) reuptake; in words, PL 1 (JP 5184354 B)): can inhibit the reuptake
- effectiveness against norepinephrine (NE) reuptake ([2]; compared with DA and 5-HT reuptake, background statement): most effective
- inhibition of norepinephrine reuptake ([2]; in words, PL 1 (JP 5184354 B)): can inhibit the reuptake
